The structures appear in SMILES notation.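 How tested: cells in 96-well plates exposed to compound for 48 hours at five concentrations. GI50 = concentration required for 50% inhibition of growth. TGI is the concentration that stops growth completely.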

14 compounds from PubChem BioAssay (NCI) can be followed below.

Among the test systems are SF-268 CNS; EKVX NSCLC; RPMI-8226 leukemia; SK-MEL-5 melanoma; OVCAR-3 ovarian; A498 renal; HCT-15 colon; DU-145 prostate; ACHN renal; MDA-MB-435.
Assay in all cases: NCI-60 cell line screen, 48 h

For the compound `O=c1c(O)cccc2cc(O)c(O)c(O)c12`, the GI50 is 5.34 µM in the assay on SF-268 CNS; 19.1 µM in the assay with EKVX NSCLC; 6.77 µM in the assay with RPMI-8226 leukemia; more than 100 µM in the assay on SK-MEL-5 melanoma; 6.57 µM with OVCAR-3 ovarian; 4.16 µM in the assay on A498 renal. For the same compound, the GI50 in the assay with HCT-15 colon was 39.1 µM; in the assay with DU-145 prostate it was 18.8 µM; in the assay on ACHN renal, 7.82 µM; in the assay with MDA-MB-435, 3.82 µM. The TGI in the assay on SF-268 CNS was more than 100 µM; in the assay on EKVX NSCLC, more than 100 µM; with RPMI-8226 leukemia, more than 100 µM; in the assay on SK-MEL-5 melanoma, more than 100 µM; in the assay on OVCAR-3 ovarian, 32.3 µM; in the assay on A498 renal, more than 100 µM. In addition, the TGI with HCT-15 colon, in the assay on DU-145 prostate, in the assay on ACHN renal and with MDA-MB-435 was more than 100 µM in each case.
For `COc1ccc(-c2nc(C(=O)c3ccccc3)n(CC(=O)c3ccccc3)c2-c2ccc(OC)cc2)cc1`, the GI50 in the assay with SF-268 CNS, in the assay with EKVX NSCLC, in the assay on RPMI-8226 leukemia, with SK-MEL-5 melanoma, in the assay on OVCAR-3 ovarian and in the assay with A498 renal was more than 100 µM in each case. The GI50 with HCT-15 colon, in the assay with DU-145 prostate, in the assay on ACHN renal and in the assay with MDA-MB-435 was more than 100 µM in each case. In addition, the TGI in the assay on SF-268 CNS, in the assay with EKVX NSCLC, in the assay on RPMI-8226 leukemia, in the assay with SK-MEL-5 melanoma, in the assay with OVCAR-3 ovarian and in the assay on A498 renal was more than 100 µM in each case. For the same compound, the TGI in the assay with HCT-15 colon, in the assay with DU-145 prostate, with ACHN renal and with MDA-MB-435 was more than 100 µM in each case.
Regarding `COC1=CC23CCCN2CCc2cc4c(cc2C3C1O)OCO4` (stereo not drawn), the TGI in the assay on SF-268 CNS is more than 100 µM; with EKVX NSCLC, more than 100 µM; in the assay on SK-MEL-5 melanoma it was 54 µM; with A498 renal it was more than 100 µM; in the assay with HCT-15 colon, more than 100 µM; in the assay with DU-145 prostate, more than 100 µM. Also, the results for the TGI in the assay with ACHN renal and with MDA-MB-435 were 60.1 µM and more than 100 µM, respectively.
In the case of `Cc1cc2cn3c4ccc(O)cc4[nH]c(=O)c3c2cc1C`, the GI50 with EKVX NSCLC is 0.403 µM; with RPMI-8226 leukemia, 0.252 µM; with SK-MEL-5 melanoma it was 0.0272 µM; in the assay on OVCAR-3 ovarian it was 0.0125 µM; with A498 renal, 0.0319 µM; in the assay on HCT-15 colon, 0.032 µM. The GI50 with DU-145 prostate is 0.0285 µM; with ACHN renal it was 0.0471 µM. The TGI with EKVX NSCLC came out at 1.85 µM; with RPMI-8226 leukemia, 3.28 µM; in the assay on SK-MEL-5 melanoma, 0.231 µM; in the assay on OVCAR-3 ovarian it was 0.0399 µM; in the assay with A498 renal it was 1.43 µM; in the assay with HCT-15 colon, 1.18 µM. In addition, the TGI in the assay on DU-145 prostate was 0.315 µM; in the assay with ACHN renal, 1.64 µM; in the assay on MDA-MB-435, 0.0121 µM.
Consider `CN1CCN(c2ccc(Nc3nc(N)c(C(=O)c4ccc5c(c4)OCCO5)s3)cc2)CC1`, for which the GI50 is 3.84 µM in the assay with SF-268 CNS; 3.85 µM in the assay on RPMI-8226 leukemia; 3.52 µM in the assay with SK-MEL-5 melanoma; 4.05 µM in the assay on OVCAR-3 ovarian; 2.3 µM in the assay on A498 renal; 4.08 µM in the assay on HCT-15 colon. Moreover, the values for the GI50 in the assay on DU-145 prostate, in the assay with ACHN renal and in the assay on MDA-MB-435 were 4.34 µM, 1.85 µM and 3.44 µM, respectively. For the same compound, the TGI with SF-268 CNS was 10.5 µM; in the assay with RPMI-8226 leukemia it was 11.6 µM; with SK-MEL-5 melanoma, 8.88 µM; with OVCAR-3 ovarian it was 9.69 µM; in the assay on A498 renal, 6.22 µM; in the assay with HCT-15 colon, more than 25 µM. Moreover, the TGI was 16.5 µM with DU-145 prostate, 6.57 µM in the assay on ACHN renal and 12.2 µM in the assay with MDA-MB-435.
For the compound `CCN1C2=NCCN2S(=O)(=O)c2ccccc21`, the TGI in the assay on SF-268 CNS, with EKVX NSCLC, in the assay on SK-MEL-5 melanoma, in the assay with OVCAR-3 ovarian, with A498 renal and with HCT-15 colon was more than 100 µM each time. Besides, the TGI with DU-145 prostate, in the assay on ACHN renal and in the assay with MDA-MB-435 was more than 100 µM throughout.
Regarding `Cc1cc(Nc2c3ccccc3nc3ccccc23)ccc1NS(C)(=O)=O`, the GI50 in the assay with SF-268 CNS was 4.66 µM; with RPMI-8226 leukemia it was 3.02 µM; in the assay on SK-MEL-5 melanoma it was 4.2 µM; in the assay on OVCAR-3 ovarian, 6.13 µM; in the assay on A498 renal, 2.24 µM; in the assay with HCT-15 colon it was 4.12 µM. Besides, the GI50 is 4.87 µM in the assay with DU-145 prostate, 2.96 µM in the assay on ACHN renal and 4.26 µM in the assay with MDA-MB-435. The TGI in the assay on SF-268 CNS was 19.2 µM; with RPMI-8226 leukemia, 11.2 µM; in the assay with SK-MEL-5 melanoma it was 16.6 µM; in the assay with OVCAR-3 ovarian, 20.1 µM; with A498 renal, 10.6 µM; in the assay on HCT-15 colon it was 20.5 µM. Besides, the TGI in the assay with DU-145 prostate turned out to be 19.9 µM; in the assay with ACHN renal, 12.5 µM; with MDA-MB-435 it was 25.4 µM.
With `CCCCCCCCCCCCCCCC[N+](C)(CCO)Cc1cnc[nH]1` (stereo not drawn), the GI50 in the assay on EKVX NSCLC is 1.47 µM; in the assay on OVCAR-3 ovarian it was 0.995 µM; in the assay on A498 renal it was 2.93 µM; in the assay on HCT-15 colon it was 3.03 µM; in the assay with DU-145 prostate, 1.23 µM; in the assay with ACHN renal, 3.13 µM. The GI50 in the assay on MDA-MB-435 was 1.44 µM. For the same compound, the TGI with EKVX NSCLC stood at 6.63 µM; in the assay on OVCAR-3 ovarian, 3.31 µM; in the assay on A498 renal it was 12.2 µM; in the assay on HCT-15 colon it was 26.1 µM; in the assay with DU-145 prostate it was 4.2 µM; with ACHN renal, 19.4 µM. This compound displayed a TGI in the assay with MDA-MB-435 of 3.81 µM.
With `Cc1ccc(C(=O)Nc2ccc(S(=O)(=O)O)c3cc(S(=O)(=O)O)cc(S(=O)(=O)O)c23)cc1NC(=S)Nc1cc(C(=O)Nc2ccc(S(=O)(=O)O)c3cc(S(=O)(=O)O)cc(S(=O)(=O)O)c23)ccc1C`, the TGI in the assay on SF-268 CNS, with RPMI-8226 leukemia, in the assay with SK-MEL-5 melanoma, in the assay on OVCAR-3 ovarian, in the assay on A498 renal and with HCT-15 colon was more than 75 µM in each case. Also, the TGI in the assay on DU-145 prostate, with ACHN renal and in the assay with MDA-MB-435 was more than 75 µM in each case.
Consider `O=Cc1ccc(-c2ccc(-c3nc4ccccc4o3)cc2)s1`, for which the GI50 was 28.4 µM in the assay with SF-268 CNS; 20.3 µM in the assay with EKVX NSCLC; 21.8 µM with SK-MEL-5 melanoma; 16.5 µM in the assay with OVCAR-3 ovarian; 34.2 µM with HCT-15 colon; 26.3 µM in the assay on DU-145 prostate. Further, the GI50 was 31.5 µM in the assay with ACHN renal and 24.1 µM in the assay with MDA-MB-435. Moreover, the TGI in the assay on SF-268 CNS was 81.5 µM; in the assay on EKVX NSCLC, 77 µM; in the assay on SK-MEL-5 melanoma it was 45.2 µM; in the assay with OVCAR-3 ovarian, 45.4 µM; with HCT-15 colon, more than 100 µM; with DU-145 prostate, more than 100 µM. The TGI in the assay with ACHN renal is more than 100 µM; with MDA-MB-435 it was 77.9 µM.
As to `O=C(O)c1cc2ccccc2c(N=Nc2cc(C(F)(F)F)ccc2Cl)c1O`, the TGI in the assay on SF-268 CNS, in the assay on EKVX NSCLC, in the assay on RPMI-8226 leukemia, with SK-MEL-5 melanoma, in the assay on OVCAR-3 ovarian and in the assay on HCT-15 colon was more than 100 µM each time. Moreover, the TGI in the assay with DU-145 prostate, in the assay on ACHN renal and with MDA-MB-435 was more than 100 µM each time.
Regarding `Nc1nc2cc3ccc(C4CC(O)C(CO)O4)cc3cc2c(=O)[nH]1` (stereo not drawn), the GI50 is more than 100 µM in the assay with SF-268 CNS; more than 100 µM in the assay on EKVX NSCLC; more than 100 µM in the assay with RPMI-8226 leukemia; more than 100 µM in the assay with SK-MEL-5 melanoma; more than 100 µM with OVCAR-3 ovarian; 26.8 µM with A498 renal. Moreover, the GI50 in the assay with HCT-15 colon, in the assay with DU-145 prostate and in the assay with MDA-MB-435 was more than 100 µM throughout. In addition, the TGI in the assay on SF-268 CNS, in the assay on EKVX NSCLC, with RPMI-8226 leukemia, with SK-MEL-5 melanoma, in the assay with OVCAR-3 ovarian and with A498 renal was more than 100 µM throughout. Also, the TGI in the assay on HCT-15 colon, with DU-145 prostate and in the assay on MDA-MB-435 was more than 100 µM throughout.
`COc1cc2c3c(n(CCCNCCCNCCCNCCCN)c(=O)c2cc1OC)-c1cc2c(cc1C3=O)OCO2`: the GI50 in the assay on SF-268 CNS was 1.7 µM; in the assay with EKVX NSCLC, 1.18 µM; in the assay on OVCAR-3 ovarian, 1.57 µM; in the assay with A498 renal, 3.14 µM; in the assay on HCT-15 colon, 6.77 µM; in the assay with DU-145 prostate it was 1.42 µM. Further, the GI50 was 3.1 µM in the assay on ACHN renal and 1.45 µM in the assay on MDA-MB-435. The TGI with SF-268 CNS is 4.33 µM; with EKVX NSCLC it was 3.5 µM; in the assay with OVCAR-3 ovarian it was 3.88 µM; with A498 renal it was 12.1 µM; in the assay on HCT-15 colon, 29 µM; with DU-145 prostate, 4.19 µM. Further, the TGI in the assay with ACHN renal stood at 12 µM; in the assay on MDA-MB-435, 3.18 µM.
Take `CC#C/C(=N\OC[C@H]1COCCN1)c1ccc2ncnc(Nc3ccc(OCc4cccc(F)c4)c(Cl)c3)c2c1`: the GI50 is 0.343 µM in the assay with EKVX NSCLC; 1.66 µM in the assay with RPMI-8226 leukemia; 1.85 µM in the assay on SK-MEL-5 melanoma; 1.43 µM in the assay on OVCAR-3 ovarian; 2.07 µM in the assay with A498 renal; 1.41 µM in the assay on HCT-15 colon. For the same compound, the GI50 in the assay on DU-145 prostate is 1.1 µM; with MDA-MB-435, 1.67 µM. The TGI with EKVX NSCLC came to 2.44 µM; in the assay on RPMI-8226 leukemia, 3.81 µM; with SK-MEL-5 melanoma, 3.45 µM; in the assay with OVCAR-3 ovarian, 2.94 µM; with A498 renal it was 7.7 µM; in the assay with HCT-15 colon, 2.81 µM. In addition, the TGI with DU-145 prostate was 2.36 µM; in the assay with MDA-MB-435 it was 3.1 µM.
